Test results reported in the supplement of paper PMC10307832.

Experiments:
Test in all cases: relative viability (nuclei count vs DMSO), 5 days (fraction); higher = more cells survive
NCI-H838 = test system: NCI-H838
In short: (§1)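 For relative viability, nuclei counts in treated wells were divided by those in vehicle wells. Lung cancer cell lines had been pin-tool dosed in 1536-well plates the day after seeding and cultured for 5 days, then fixed and stained in one step (final 0.05% Triton X-100, 1% formaldehyde, 1 ug/ml Hoechst) and imaged at 4×. Doses were one drug alone or a fixed anchor-drug dose plus five library-drug doses (not always all listed) in √10 steps, and values are duplicate-plate medians.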

HCC-78 = test system: HCC-78
In short: as §1

NCI-H650 = test system: NCI-H650
In short: as §1

EPLC-272H = test system: EPLC-272H
In short: as §1

NCI-H1993 = test system: NCI-H1993
In short: as §1

COR-L23 = test system: COR-L23
In short: as §1

NCI-H2085 = test system: NCI-H2085
In short: as §1

SW 1573 = test system: SW 1573
In short: as §1

NCI-H358 = test system: NCI-H358
In short: as §1

PC-14 = test system: PC-14
In short: as §1

NCI-H2009 = test system: NCI-H2009
In short: as §1

NCI-H460 = test system: NCI-H460
In short: as §1

UMC-11 = test system: UMC-11
In short: as §1

LU99A = test system: LU99A
In short: as §1

NCI-H1915 = test system: NCI-H1915
In short: as §1

LC-2-ad = test system: LC-2-ad
In short: as §1

NCI-H2347 = test system: NCI-H2347
In short: as §1

ABC-1 = test system: ABC-1
In short: as §1

NCI-H2126 = test system: NCI-H2126
In short: as §1

HCC-15 = test system: HCC-15
In short: as §1

NCI-H1651 = test system: NCI-H1651
In short: as §1

HARA = test system: HARA
In short: as §1

SMILES: CC(C)Oc1cc(Nc2nc(N[C@@H](C)c3ccc(F)cn3)ncc2Cl)n[nH]1 [AZ23] + Cc1nc(NC(=O)N2CCC[C@H]2C(N)=O)sc1-c1ccnc(C(C)(C)C(F)(F)F)c1 [Alpelisib] (partner 2 µM)
- relative viability (NCI-H838; first compound 0.01 µM): 0.968
- relative viability (NCI-H838; first compound 0.03162 µM): 1.25
- relative viability (NCI-H838; first compound 0.3162 µM): 0.998
- relative viability (HCC-78; first compound 0.01 µM): 0.348
- relative viability (HCC-78; first compound 0.03162 µM): 0.286
- relative viability (HCC-78; first compound 0.3162 µM): 0.306
- relative viability (NCI-H650; first compound 0.01 µM): 1.03
- relative viability (NCI-H650; first compound 0.03162 µM): 1.19
- relative viability (NCI-H650; first compound 0.3162 µM): 1.16
- relative viability (EPLC-272H; first compound 0.01 µM): 0.873
- relative viability (EPLC-272H; first compound 0.03162 µM): 1.18
- relative viability (NCI-H1993; first compound 0.01 µM): 0.597
- relative viability (NCI-H1993; first compound 0.3162 µM): 0.659
- relative viability (COR-L23; first compound 0.01 µM): 0.815
- relative viability (COR-L23; first compound 0.03162 µM): 0.921
- relative viability (COR-L23; first compound 0.3162 µM): 0.821
- relative viability (NCI-H2085; first compound 0.01 µM): 1
- relative viability (NCI-H2085; first compound 0.03162 µM): 0.999
- relative viability (NCI-H2085; first compound 0.3162 µM): 0.938
- relative viability (SW 1573; first compound 0.01 µM): 0.852
- relative viability (SW 1573; first compound 0.03162 µM): 0.845
- relative viability (SW 1573; first compound 0.3162 µM): 0.712
- relative viability (NCI-H358; first compound 0.01 µM): 0.937
- relative viability (NCI-H358; first compound 0.03162 µM): 0.855
- relative viability (NCI-H358; first compound 0.3162 µM): 0.928
- relative viability (PC-14; first compound 0.01 µM): 0.897
- relative viability (PC-14; first compound 0.03162 µM): 1.13
- relative viability (PC-14; first compound 0.3162 µM): 1.06
- relative viability (NCI-H2009; first compound 0.01 µM): 1.13
- relative viability (NCI-H2009; first compound 0.03162 µM): 1.23
- relative viability (NCI-H2009; first compound 0.3162 µM): 1.19
- relative viability (NCI-H460; first compound 0.01 µM): 0.429
- relative viability (NCI-H460; first compound 0.03162 µM): 0.598
- relative viability (NCI-H460; first compound 0.3162 µM): 0.48
- relative viability (UMC-11; first compound 0.01 µM): 0.883
- relative viability (UMC-11; first compound 0.03162 µM): 1.07
- relative viability (UMC-11; first compound 0.3162 µM): 0.943
- relative viability (LU99A; first compound 0.01 µM): 0.49
- relative viability (LU99A; first compound 0.03162 µM): 0.651
- relative viability (LU99A; first compound 0.3162 µM): 0.555
- relative viability (NCI-H1915; first compound 0.01 µM): 1.17
- relative viability (NCI-H1915; first compound 0.03162 µM): 1.09
- relative viability (NCI-H1915; first compound 0.3162 µM): 1.04
- relative viability (LC-2-ad; first compound 0.01 µM): 1.01
- relative viability (LC-2-ad; first compound 0.03162 µM): 0.895
- relative viability (LC-2-ad; first compound 0.3162 µM): 0.892
- relative viability (NCI-H2347; first compound 0.01 µM): 1.06
- relative viability (NCI-H2347; first compound 0.03162 µM): 1.09
- relative viability (NCI-H2347; first compound 0.3162 µM): 1.08
- relative viability (ABC-1; first compound 0.01 µM): 0.717
- relative viability (ABC-1; first compound 0.03162 µM): 1.23
- relative viability (ABC-1; first compound 0.3162 µM): 1.14
- relative viability (NCI-H2126; first compound 0.01 µM): 0.768
- relative viability (NCI-H2126; first compound 0.03162 µM): 0.698
- relative viability (NCI-H2126; first compound 0.3162 µM): 0.769
- relative viability (HCC-15; first compound 0.01 µM): 1.13
- relative viability (HCC-15; first compound 0.03162 µM): 0.857
- relative viability (HCC-15; first compound 0.3162 µM): 0.877
- relative viability (NCI-H1651; first compound 0.01 µM): 0.773
- relative viability (NCI-H1651; first compound 0.03162 µM): 1.05
- relative viability (NCI-H1651; first compound 0.3162 µM): 1.16
- relative viability (HARA; first compound 0.01 µM): 1.18
- relative viability (HARA; first compound 0.03162 µM): 0.847
- relative viability (HARA; first compound 0.3162 µM): 0.774
